Results taken from article PMC5824847, “Linear peptidomimetics as potent antagonists of Staphylococcus aureus agr quorum sensing” (Scientific Reports, 2018).
In brackets after ≈: the same amount, converted by molar mass. Entries after “also recorded” stand apart in the source; their conditions may differ. Square brackets hold non-standard residues; d marks the D form. Peptide text beside a SMILES is read from it. N(1-naphthylmethyl)Gly = O=C(O)CNCc1cccc2ccccc12; N(4-MeBn)Gly = Cc1ccc(CNCC(=O)O)cc1; NBuGly = CCCCNCC(=O)O

Legend:
[1] = tested on: S. aureus virulence gene expression (agr; RNAIII, hla, spa reporters); experiment: Agar diffusion reporter assay, overall activity on the three reporters; assay type: cell-based, Staphylococcus aureus; details: TSA plates with RNAIII::lacZ, hla::lacZ and spa::lacZ reporters, 10 μg/well (500 μg/ml; 20 μl/well)
Procedure: The reporter assay was conducted as described by Nielsen et al. (2010) using three different lacZ transcriptional reporter strains, PC203, PC322 and SH101F[37]. Test compounds dissolved in H2O or DMSO was added to agar wells at indicated concentrations and solvent only was included as a control. Incubation until blue color appeared in plates varied from 9 h to 48 h. The ability of the peptidomimetics to influence virulence gene expression was observed based on the color change around the wells; a white halo represents downregulation of virulence gene expression, while a blue halo represents upregulation of expression, with the size of the halo being indicative of the degree of interference.

[2] = tested on: 8325-4 and RN10829 WT S. aureus strains; experiment: Minimum Inhibitory Concentration (MIC); assay type: cell-based, Staphylococcus aureus; details: TSB, two-fold dilution series 4 to 256 μg/ml, approx. 5 × 10^5 CFU/ml, 24 hours at 37 °C; lowest concentration with no growth; values identical for 8325-4 and RN10829 WT
Procedure: Overnight cultures (24 h, 37 °C, 200 rpm in TSB) of S. aureus strains were diluted 5000X in fresh TSB and was aliquoted into 96-well microtiter plates with two-fold dilution series of the peptidomimetics ranging from 4 μg/ml to 256 μg/ml (final concentration) to reach an initial cell density of approximately 5 × 10^5 CFU/ml. DMSO was used as control and the plate was incubated for 24 hours at 37 °C. The MICs of the peptidomimetics were recorded as the lowest concentration for which no bacterial growth was observed.
Supplementary Table S2: Minimum Inhibitory Concentration (MIC) of the peptidomimetics tested on 8325-4 and RN10829 WT S. aureus strains (MIC values were identical for both strains, thus are represented here in one column).

[3] = RP-HPLC retention time (hydrophobicity); assay type: physicochemical; details: analytical RP-HPLC; used by the paper as a measure of hydrophobicity
Procedure: The synthesis of the peptidomimetics was performed as described by Oddo et al. (2015)[51]. According to this, a combination of Fmoc Solid Phase Peptide Synthesis (SPPS) and sub-monomer approach was applied. After the synthesis, the peptidomimetics were purified (>95%) by preparative HPLC and the purity was determined through analytical HPLC. Moreover, the MALDI-TOF-MS was used in order to verify the identity of the peptidomimetics.

CCCCN(CC(=O)N(CC(=O)NCC(N)=O)Cc1cccc2ccccc12)C(=O)[C@H](CCCCN)NC(=O)[C@H](CCCCN)NC(=O)CN(Cc1ccc(C)cc1)C(=O)CNCc1cccc2ccccc12 [G7] (H-[N(1-naphthylmethyl)Gly][N(4-MeBn)Gly]KK[NBuGly][N(1-naphthylmethyl)Gly]G-NH2)
Activity on virulence gene expression (agr modulatory activity), overall [1]: increased activity; also recorded: greatly improved agr-inhibitory activity compared to D3
MIC [2]: 64 µg/mL (≈ 64 µM)
Rt (RP-HPLC retention time) [3]: 17.5 min
